# Test results reported in patent publication US12729377B2, “RNAi agents and compositions for inhibiting expression of angiopoietin-like 3 (ANGPTL3), and methods of use” (Arrowhead Pharmaceuticals, Inc., priority 2017, dated 2026).
# In the oligonucleotide strings, read from the 5' end, every base follows the letter of its sugar. An asterisk marks phosphorothioate; unmarked linkages are phosphodiester. Other units and linkages are bracketed, terminal groups are in braces. A string of capitals states the bases alone. {NAG37} = tridentate N-acetyl-galactosamine targeting ligand, structure (NAG37)s; [invAb] = inverted abasic unit; m = 2'-O-methyl; f = 2'-fluoro
# Columns and labels:
# ANGPTL3 gene [1] = experiment: Example 4: serum LDL in mice; format: in vivo, C57bl/6 mice; settings: for Avg LDL, normalized to pre-treatment and control: 1.0 mg/kg single SC injection on day 1, serum, n=3
# Description: (§1) To assess the in vivo activity of ANGPTL3 RNAi agents that are designed to target additional positions on the ANGPTL3 gene, six- to eight-week-old female C57bl/6 mice were used. Pre-dose serum samples were taken at day −1 after a four hour fast. At day 1, each mouse was given a single subcutaneous administration of 200 μl containing either 1 mg/kg (mpk) or 0.5 mg/kg (mpk) of an ANGPTL3 RNAi agent in D5W (dextrose in 5% water), or control (D5W) with no RNAi agent, according to the dosing groups recited in Table 17.
# (§2) Each of the RNAi agents included a modified sequence and an N-acetyl-galactosamine-containing targeting ligand conjugated to the 5′ terminal end of the sense strand. (See Tables 3, 4, and 5 for modified sequences and targeting ligand structures). The injections were performed between the skin and muscle (i.e. subcutaneous injections) into the loose skin over the neck and shoulder area. Three (3) mice in each group were tested (n=3). Serum was collected on days 8, 15, 22, 29, and day 43 (Groups 1-3, 9, and 11-13 only). Mice were fasted for four hours prior to each collection. ANGPTL3 protein levels in serum were measured by ELISA assay (R&D Systems), according to the manufacturer's recommendations. Triglycerides, high-density lipoprotein (HDL), and total cholesterol in serum were measured on a Cobas® Integra 400 (Roche Diagnostics), according to the manufacturer's recommendations.
# (§3) The ANGPTL3 protein levels, triglyceride levels, HDL levels, and total cholesterol levels for each animal were normalized. For normalization, the level of ANGPTL3 protein, triglyceride, HDL, and total cholesterol, respectively, for each animal at a time point, was divided by the pre-treatment level of expression in that animal (in this case at day −1) to determine the ratio of expression “normalized to pre-treatment.” Expression at a specific time point was then normalized to the D5W control group by dividing the “normalized to pre-treatment” ratio for an individual animal by the mean “normalized to pretreatment” ratio of all mice in the D5W control group.
# ANGPTL3 gene [2] = experiment: Example 4: serum total cholesterol in mice; format: in vivo, C57bl/6 mice
# Description: as §1, §2, §3
# ANGPTL3 gene [3] = experiment: Example 4: serum triglycerides in mice; format: in vivo
# Description: as §1, §2, §3
# ANGPTL3 gene [4] = experiment: Example 4: serum HDL in mice; format: in vivo, C57bl/6 mice
# Description: as §1, §2, §3
# ANGPTL3 protein [5] = experiment: Example 4: serum ANGPTL3 protein by ELISA in mice; format: in vivo, C57bl/6 mice; settings: for Avg ANGPTL3 (Average ANGPTL3 Protein Normalized to Pre-Treatment and Control): 1.0 mg/kg single subcutaneous dose on day 1, serum, female C57bl/6 mice
# Description: as §1, §2, §3
# ANGPTL3 gene [6] = experiment: Example 7: serum HDL in mice; format: in vivo; parameters: key: ratio: (level/pre-treatment day -1 level) ÷ mean of D5W control group; settings: 0.5 mg/kg single SC injection day 1, female C57bl/6 mice, n=3, ratio to D5W control
# Description: (§4) To further assess the in vivo activity of additional ANGPTL3 RNAi agents that are designed to target position 304 on the ANGPTL3 gene, six- to eight-week-old female C57bl/6 mice were used. Pre-dose serum samples were taken at day −1 after a four hour fast. At day 1, each mouse was given a single subcutaneous administration of 200 μl containing 0.5 mg/kg (mpk) of an ANGPTL3 RNAi agent in D5W (dextrose in 5% water), or control (D5W) with no RNAi agent, according to the dosing groups recited in Table 31.
# as §2, with “22,” for “22, 29,”, “29.” for “day 43 (Groups 1-3, 9, and 11-13 only).”, “Triglycerides, total cholesterol,” for “Triglycerides,”, “low-density lipoprotein (LDL)” for “total cholesterol”
# (§5) The ANGPTL3 protein levels, triglyceride levels, total cholesterol levels, HDL levels, and LDL levels for each animal were normalized. For normalization, the level of ANGPTL3 protein, triglyceride, HDL, and total cholesterol, respectively, for each animal at a time point, was divided by the pre-treatment level of expression in that animal (in this case at day −1) to determine the ratio of expression “normalized to pre-treatment.” Expression at a specific time point was then normalized to the D5W control group by dividing the “normalized to pre-treatment” ratio for an individual animal by the mean “normalized to pretreatment” ratio of all mice in the D5W control group.
# ANGPTL3 gene [7] = experiment: Example 7: serum triglycerides in mice; format: in vivo, C57bl/6 mice; parameters: key: ratio: (level/pre-treatment day -1 level) ÷ mean of D5W control group
# Description: as §4
# as §2, with “22,” for “22, 29,”, “29.” for “day 43 (Groups 1-3, 9, and 11-13 only).”, “Triglycerides, total cholesterol,” for “Triglycerides,”, “low-density lipoprotein (LDL)” for “total cholesterol”
# as §5
# ANGPTL3 gene [8] = experiment: Example 7: serum total cholesterol in mice; format: in vivo, C57bl/6 mice; parameters: key: ratio: (level/pre-treatment day -1 level) ÷ mean of D5W control group
# Description: as §4
# as §2, with “22,” for “22, 29,”, “29.” for “day 43 (Groups 1-3, 9, and 11-13 only).”, “Triglycerides, total cholesterol,” for “Triglycerides,”, “low-density lipoprotein (LDL)” for “total cholesterol”
# as §5
# ANGPTL3 gene [9] = experiment: Example 7: serum LDL in mice; format: in vivo; parameters: key: ratio: (level/pre-treatment day -1 level) ÷ mean of D5W control group; settings: 0.5 mg/kg single SC injection day 1, female C57bl/6 mice, n=3, ratio to D5W control
# Description: as §4
# as §2, with “22,” for “22, 29,”, “29.” for “day 43 (Groups 1-3, 9, and 11-13 only).”, “Triglycerides, total cholesterol,” for “Triglycerides,”, “low-density lipoprotein (LDL)” for “total cholesterol”
# as §5
# ANGPTL3 protein [10] = experiment: Example 7: serum ANGPTL3 protein by ELISA in mice; format: in vivo, C57bl/6 mice; parameters: key: ratio: (level/pre-treatment day -1 level) ÷ mean of D5W control group
# Description: as §4
# as §2, with “22,” for “22, 29,”, “29.” for “day 43 (Groups 1-3, 9, and 11-13 only).”, “Triglycerides, total cholesterol,” for “Triglycerides,”, “low-density lipoprotein (LDL)” for “total cholesterol”
# as §5
# [11] = Day 8, 1.0 mg/kg single SC injection on day 1, n=3
# [12] = Day 15, 1.0 mg/kg single SC injection on day 1, n=3
# [13] = Day 22, 1.0 mg/kg single SC injection on day 1, n=3
# [14] = Day 29, 1.0 mg/kg single SC injection on day 1, n=3
# [15] = Day 43, 1.0 mg/kg single SC injection on day 1, n=3
# [16] = Day 8, 0.5 mg/kg single SC injection on day 1, n=3
# [17] = Day 15, 0.5 mg/kg single SC injection on day 1, n=3
# [18] = Day 22, 0.5 mg/kg single SC injection on day 1, n=3
# [19] = Day 29, 0.5 mg/kg single SC injection on day 1, n=3
substance,measurement,setting,value
"AD05487: RNAi agent duplex: antisense AM07233-AS, sense AM07232-SS (antisense mU*fA*mC*fUmGfAmUfCmAfAmAfUmAfUmGfUmUfGmAfG*mU; sense {NAG37}*[invAb]*mAmCmUmCmAmAmCmAfUfAfUmUmUmGmAmUmCmAmGmUmA*[invAb])","Avg LDL, normalized to pre-treatment and control",ANGPTL3 gene [1]; Day 8,0.916
same,"Avg LDL, normalized to pre-treatment and control",ANGPTL3 gene [1]; Day 15,1.125
same,"Avg LDL, normalized to pre-treatment and control",ANGPTL3 gene [1]; Day 22,0.845
same,"Avg LDL, normalized to pre-treatment and control",ANGPTL3 gene [1]; Day 29,0.744
same,"Avg LDL, normalized to pre-treatment and control",ANGPTL3 gene [1]; Day 43,0.989
same,LDL levels reduced,"ANGPTL3 gene [1]; day 29, single 1 mg/kg subcutaneous, C57bl/6 mice",~20%
same,"Avg Total Chol, normalized to pre-treatment and control",ANGPTL3 gene [2]; [11],0.728
same,"Avg Total Chol, normalized to pre-treatment and control",ANGPTL3 gene [2]; [12],0.944
same,"Avg Total Chol, normalized to pre-treatment and control",ANGPTL3 gene [2]; [13],0.697
same,"Avg Total Chol, normalized to pre-treatment and control",ANGPTL3 gene [2]; [14],0.560
same,"Avg Total Chol, normalized to pre-treatment and control",ANGPTL3 gene [2]; [15],0.923
same,Avg TG (Average Triglycerides Normalized to Pre-Treatment and Control),"ANGPTL3 gene [3]; Day 8, 1.0 mg/kg single subcutaneous dose on day 1, female C57bl/6 mice",0.776
same,Avg TG (Average Triglycerides Normalized to Pre-Treatment and Control),"ANGPTL3 gene [3]; Day 15, 1.0 mg/kg single subcutaneous dose on day 1, female C57bl/6 mice",0.912
same,Avg TG (Average Triglycerides Normalized to Pre-Treatment and Control),"ANGPTL3 gene [3]; Day 22, 1.0 mg/kg single subcutaneous dose on day 1, female C57bl/6 mice",0.761
same,Avg TG (Average Triglycerides Normalized to Pre-Treatment and Control),"ANGPTL3 gene [3]; Day 29, 1.0 mg/kg single subcutaneous dose on day 1, female C57bl/6 mice",0.556
same,Avg TG (Average Triglycerides Normalized to Pre-Treatment and Control),"ANGPTL3 gene [3]; Day 43, 1.0 mg/kg single subcutaneous dose on day 1, female C57bl/6 mice",0.757
same,"Avg HDL, normalized to pre-treatment and control",ANGPTL3 gene [4]; [11],0.716
same,"Avg HDL, normalized to pre-treatment and control",ANGPTL3 gene [4]; [12],0.918
same,"Avg HDL, normalized to pre-treatment and control",ANGPTL3 gene [4]; [13],0.658
same,"Avg HDL, normalized to pre-treatment and control",ANGPTL3 gene [4]; [14],0.745
same,"Avg HDL, normalized to pre-treatment and control",ANGPTL3 gene [4]; [15],0.934
same,Avg ANGPTL3 (Average ANGPTL3 Protein Normalized to Pre-Treatment and Control),ANGPTL3 protein [5]; Day 8,0.173
same,Avg ANGPTL3 (Average ANGPTL3 Protein Normalized to Pre-Treatment and Control),ANGPTL3 protein [5]; Day 15,0.170
same,Avg ANGPTL3 (Average ANGPTL3 Protein Normalized to Pre-Treatment and Control),ANGPTL3 protein [5]; Day 22,0.138
same,Avg ANGPTL3 (Average ANGPTL3 Protein Normalized to Pre-Treatment and Control),ANGPTL3 protein [5]; Day 29,0.226
same,Avg ANGPTL3 (Average ANGPTL3 Protein Normalized to Pre-Treatment and Control),ANGPTL3 protein [5]; Day 43,0.477
same,ANGPTL3 protein normalized to pre-treatment and control,"ANGPTL3 protein [5]; day 15, single 1 mg/kg subcutaneous, C57bl/6 mice",0.170
same,ANGPTL3 protein normalized to pre-treatment and control,"ANGPTL3 protein [5]; day 22, single 1 mg/kg subcutaneous, C57bl/6 mice",0.138
same,knockdown of ANGPTL3 protein,"ANGPTL3 protein [5]; days 15 and 22, single 1 mg/kg subcutaneous, C57bl/6 mice",~75%
"AD05777: RNAi agent duplex: antisense AM07235-AS, sense AM07610-SS (antisense UACUGAUCAAAUAUGUUGAGC; sense GCUCAACNUNUUUGAUCAGUA; (NAG37)s GalNAc ligand; RNAi agent antisense strand modified sequence; RNAi agent sense strand modified sequence; modified_base 8, 10 n = 2′-O-methyl-2-aminoadenosine-3′-phosphate)","Avg HDL, normalized to pre-treatment and control",ANGPTL3 gene [6]; Day 8,0.784
same,"Avg HDL, normalized to pre-treatment and control",ANGPTL3 gene [6]; Day 15,0.768
same,"Avg HDL, normalized to pre-treatment and control",ANGPTL3 gene [6]; Day 22,0.801
same,"Avg HDL, normalized to pre-treatment and control",ANGPTL3 gene [6]; Day 29,1.008
same,"Avg TG, normalized to pre-treatment and control",ANGPTL3 gene [7]; [16],0.755
same,"Avg TG, normalized to pre-treatment and control",ANGPTL3 gene [7]; [17],0.702
same,"Avg TG, normalized to pre-treatment and control",ANGPTL3 gene [7]; [18],0.700
same,"Avg TG, normalized to pre-treatment and control",ANGPTL3 gene [7]; [19],0.648
same,"Avg Total Chol, normalized to pre-treatment and control",ANGPTL3 gene [8]; [16],0.797
same,"Avg Total Chol, normalized to pre-treatment and control",ANGPTL3 gene [8]; [17],0.800
same,"Avg Total Chol, normalized to pre-treatment and control",ANGPTL3 gene [8]; [18],0.794
same,"Avg Total Chol, normalized to pre-treatment and control",ANGPTL3 gene [8]; [19],0.995
same,"Avg LDL, normalized to pre-treatment and control",ANGPTL3 gene [9]; Day 8,0.886
same,"Avg LDL, normalized to pre-treatment and control",ANGPTL3 gene [9]; Day 15,0.869
same,"Avg LDL, normalized to pre-treatment and control",ANGPTL3 gene [9]; Day 22,0.966
same,"Avg LDL, normalized to pre-treatment and control",ANGPTL3 gene [9]; Day 29,1.224
same,"Avg ANGPTL3, normalized to pre-treatment and control",ANGPTL3 protein [10]; [16],0.297
same,"Avg ANGPTL3, normalized to pre-treatment and control",ANGPTL3 protein [10]; [17],0.246
same,"Avg ANGPTL3, normalized to pre-treatment and control",ANGPTL3 protein [10]; [18],0.257
same,"Avg ANGPTL3, normalized to pre-treatment and control",ANGPTL3 protein [10]; [19],0.345
